In test [1] the test system is rabbit costicartilage cells. Briefly: Cartilage matrix (proteoglycan) production, Alcian blue staining (Experimental Examples 3 and 4). In kind it is cell-based. Conditions: summary of Tables 10 and 11. An excerpt: Costicartilages were isolated from NZ line rabbit (Kitayama Labes., Co Ltd.; male; 4-week-old) and soaked into Hank's balanced salt solution (calcium- and magnesium-free; LifeTech Co., Ltd.; hereinafter, referred to as “HBSS”). One costicartilage and one costa were excised together, the adipose tissue and the muscle tissue were removed and then, the proliferating chondrocyte layer of costicartilage was excised. The collected proliferating chondrocyte layer was cut into sections with a surgical knife (FEATHER Safety Razor Co., Ltd.) and the all proliferating chondrocyte layer sections from 4 rabbits were combined in a centrifuge tube. To the centrifuge tube was added 40 ml of HBSS (pH 7.2) supplied with 0.1% tetrasodium ethylenediamine tetraacetate to obtain suspension of the proliferating chondrocyte layer sections, which was shaken at 37° C. for 20 minutes and centrifuged (1500 rpm, 10 minutes). The supernatant was aspirated off, and 40 ml of HBSS (pH 7.2) supplied with 0.2% trypsin was added to the tube to suspend the precipitates and shaken at 37° C. for 1 hour. The tube was centrifuged (1500 rpm, 10 minutes), and the supernatant was aspirated off. The precipitates were washed twice with HBSS, suspended in 100 ml of HBSS supplied with 0.1% collagenase (Wako Pure Chemical Industries, Ltd., 034-10533) and shaken at 37° C. for 3 hours. The content of the tube was passed through the Cell Strainer (pore size 40 μm) and the filtrate was divided into four centrifuge tubes. To each of all four tubes was added 40 ml of medium (α-MEM, LifeTech Co., Ltd.), and the tubes were centrifuged (1500 rpm, 10 minutes). The supernatant was aspirated off, and the resultant precipitates were collected in one tube with Pipetman. After addition of 40 ml of the same medium, the tube was re-centrifuged (1500 rpm, 10 minutes). Washing procedure comprising addition of medium followed by centrifugation was repeated additional three times. The precipitates were suspended in the same medium to give an about 5 ml suspension, and the cell number was counted.
The suspension of costicartilage cell described above was added to 24-well plate at 50,000 cells per well (day 1). […]
After removing the medium, cells in each well were fixed by addition of 1 ml of neutral buffer containing 4% paraformaldehyde and incubation for 30 minutes at room temperature. […] Absorbance at 620 nm was measured, and cartilage matrix amount (proteoglycan production amount) in each well was estimated, and proteoglycan production rate (%) of each test compound for vehicle (100%) was calculated.
The cartilage matrix (proteoglycan) production was determined using other compounds (compounds (52)-(55) and Compound (2) for comparison) in exactly the same manner as Experimental Example 3 above.

In test [2] the test system is fibula fracture region of streptozotocin-induced diabetic rats. Briefly: Acceleration of fracture healing in diabetic rat (Experimental Example 7). As to conditions: Example 7-(1) microspheres; for Bone mineral content: 6 weeks after sutura, DXA at fracture region; for Breaking Energy / Breaking force: 6 weeks, three-point bending test. In kind it is in vivo. The protocol: CD (SD) IGS rats (Charles River Japan, Inc.; male; 7-week-old) were housed for seven days at room temperature (23±2° C.) and 55±15% humidity. During the housing period, the rats were free to access commercially available food (from Oriental Bio Service; CRF-1).
Streptozotocin (Sigma), which induce diabetes, was dissolved in citrate-buffered saline (pH 4.5) to obtain 0.05 M streptozocin solution and injected intravenously to each rat at 60 mg/kg. One week later, blood was collected from tail end and blood-glucose level was determined with a blood-glucose monitor (Molecular Devices; M-SPmax250). Based on the measurements, rats were divided into groups so that a significant difference in glucose level may not occur among groups. The average blood-glucose level was from 426.12 to 428.23 mg/dl.
Under ether anesthesia, the left-lower legs of rats were shaved and sterilized with 70% aqueous ethanol, fibulas were exposed with scissors and cut with nail scissors (Natsume Seisakusyo; B17). The cut sections of the fibula were re-matched with tweezers. For the test groups (12 rats/group), the drug-containing microspheres prepared in Example 7-(1), which contains 0.03 or 0.1 mg of Compound (2), were placed around the cutting site using spatula followed by suturing with silk thread. For the control group (12 rats/group), the same amount of drug-free microspheres prepared in Control Example 2 were placed around the cutting site using spatula followed by suturing with silk thread. Following the suturing, every animal was sterilized with 70% aqueous ethanol. After six weeks from the sutura, under ether anesthesia, rats were sacrificed by laparotomy with bleeding, and the fibulas were excised.
Eight fibulas were randomly selected from those excised at 6 weeks after sutura and subjected to DXA bone densitometer (from Aloka; DCS-600) to determine bone mineral density and bone mineral content at fracture region, (scanning width: 1 mm).
The fibula used in the determination of mineral content was subjected to a three-point bending test with bone strength tester (from Muromachi Kikai Co., Ltd.; TK-252C) to determine bone strength. Briefly, the fibula was supported by two supports apart from each other by 8 mm and the cut section was positioned at the middle of these supports, i.e., 4 mm apart from the respective two supports. Loading (3 mm/minute) from upper direction was kept on the middle point (fracture section) of fibula until fibula begins to fracture. The maximum pressure necessary to break the bone was defined as the breaking force. The total energy spent to break the bone was defined as the breaking energy.
Four fibulas excised at 6 weeks after sutura was photographed with micro focus magnification radiography system (Fuji Photo Film Co. Ltd.; μFX-1000; tube voltage: 25 kV; tube current: […]; 20 seconds).

As for `CCOc1cc2cc(CO)c(CO)c(-c3ccnc(-n4nc(-c5cccnc5)c5ccccc5c4=O)c3)c2cc1OCC` [Compound (2)], the “cartilage matrix (proteoglycan) production promoting effect (in words)” value in test [1] was “remarkable matrix production promoting effect”. Further, in test [2] (drug content 0.03 mg), the Bone mineral content was determined as 13.69 ± 0.96 mg, the “Breaking Energy” value worked out at 1.53 ± 0.39 mJ and the “Breaking force” value was 8.13 ± 1.20 N. For the same compound, in test [2] (drug content 0.1 mg), the Bone mineral content came out at 14.60 ± 0.69 mg, the “Breaking Energy” value is reported as 2.91 ± 0.82 mJ and the “Breaking force” value turned out to be 11.75 ± 2.14 N.

The values are drawn from patent US7659273B2, “Composition for accelerating bone fracture healing” (Mitsubishi Tanabe Pharma Corporation, priority 2001, dated 2010).
